What was measured:
[1] = biological target: T1, Oxysterols receptor LXR-alpha (Homo sapiens, UniProt Q13133); type: functional, cell-based, CHO
T1 sequence (Q13133 whole entry): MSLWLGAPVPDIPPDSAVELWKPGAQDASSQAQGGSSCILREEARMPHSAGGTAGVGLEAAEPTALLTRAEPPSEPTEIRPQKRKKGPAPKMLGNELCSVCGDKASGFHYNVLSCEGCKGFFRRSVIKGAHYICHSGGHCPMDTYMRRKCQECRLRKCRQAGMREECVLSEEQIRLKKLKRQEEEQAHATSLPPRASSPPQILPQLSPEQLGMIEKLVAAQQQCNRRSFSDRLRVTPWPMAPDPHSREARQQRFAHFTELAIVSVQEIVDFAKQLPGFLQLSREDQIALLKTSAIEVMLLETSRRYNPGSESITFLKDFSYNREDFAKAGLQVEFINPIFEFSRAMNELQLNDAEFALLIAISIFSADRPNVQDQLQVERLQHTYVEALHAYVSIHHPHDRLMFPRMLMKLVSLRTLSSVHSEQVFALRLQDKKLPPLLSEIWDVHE

[2] = biological target: T2, Oxysterols receptor LXR-beta (Homo sapiens, UniProt P55055); type: functional, cell-based, CHO
T2 sequence (P55055 whole entry): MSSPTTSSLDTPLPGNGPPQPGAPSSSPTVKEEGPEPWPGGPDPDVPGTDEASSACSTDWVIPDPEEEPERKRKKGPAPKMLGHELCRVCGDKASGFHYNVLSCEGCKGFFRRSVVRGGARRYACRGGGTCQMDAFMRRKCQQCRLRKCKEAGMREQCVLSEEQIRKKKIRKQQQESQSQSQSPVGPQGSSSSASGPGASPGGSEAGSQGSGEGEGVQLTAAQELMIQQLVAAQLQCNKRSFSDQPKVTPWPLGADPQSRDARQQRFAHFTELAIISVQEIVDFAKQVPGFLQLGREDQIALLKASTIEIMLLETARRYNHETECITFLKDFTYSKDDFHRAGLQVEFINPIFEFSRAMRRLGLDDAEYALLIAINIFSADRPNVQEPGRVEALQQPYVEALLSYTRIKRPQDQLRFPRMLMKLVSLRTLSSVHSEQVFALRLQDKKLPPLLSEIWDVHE

[3] = biological target: T3, Peroxisome proliferator-activated receptor alpha (Homo sapiens, UniProt Q07869)
T3 sequence (Q07869 whole entry): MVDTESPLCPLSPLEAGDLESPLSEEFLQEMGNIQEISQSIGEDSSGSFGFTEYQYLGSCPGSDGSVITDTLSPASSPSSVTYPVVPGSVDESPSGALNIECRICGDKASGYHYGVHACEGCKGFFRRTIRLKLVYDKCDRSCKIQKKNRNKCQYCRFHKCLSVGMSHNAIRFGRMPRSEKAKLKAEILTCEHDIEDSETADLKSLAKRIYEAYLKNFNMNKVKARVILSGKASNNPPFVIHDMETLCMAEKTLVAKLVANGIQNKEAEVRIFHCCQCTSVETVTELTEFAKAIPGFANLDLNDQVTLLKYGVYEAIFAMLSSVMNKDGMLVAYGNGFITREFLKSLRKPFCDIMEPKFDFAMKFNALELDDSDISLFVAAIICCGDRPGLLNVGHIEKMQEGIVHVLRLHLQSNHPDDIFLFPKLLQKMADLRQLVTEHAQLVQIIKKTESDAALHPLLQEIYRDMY

[4] = biological target: T1, Oxysterols receptor LXR-alpha
[5] = biological target: T2, Oxysterols receptor LXR-beta
Mus musculus = organism: Mus musculus; conditions: in vivo
in vivo [6] = conditions: mouse, iv, 0.5 mg/kg
in vivo [7] = conditions: mouse, iv, 0.5 mg/kg; remark: listed apart in the source
in vivo [8] = conditions: mouse
[9] = biological target: T4, Peroxisome proliferator-activated receptor delta (Homo sapiens, UniProt Q03181)
T4 sequence (Q03181 whole entry): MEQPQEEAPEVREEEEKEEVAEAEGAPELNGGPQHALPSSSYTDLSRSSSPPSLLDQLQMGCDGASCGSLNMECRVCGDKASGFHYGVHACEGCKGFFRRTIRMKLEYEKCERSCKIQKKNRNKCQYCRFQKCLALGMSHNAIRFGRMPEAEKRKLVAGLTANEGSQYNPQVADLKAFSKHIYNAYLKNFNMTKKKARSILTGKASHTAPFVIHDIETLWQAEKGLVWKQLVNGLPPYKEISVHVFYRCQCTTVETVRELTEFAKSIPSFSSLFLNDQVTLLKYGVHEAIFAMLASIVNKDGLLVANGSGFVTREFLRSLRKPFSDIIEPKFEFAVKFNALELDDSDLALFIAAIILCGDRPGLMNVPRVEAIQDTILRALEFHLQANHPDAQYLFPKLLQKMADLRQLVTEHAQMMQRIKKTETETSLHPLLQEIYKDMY

[10] = biological target: T5, Nuclear receptor subfamily 1 group I member 2 (Homo sapiens, UniProt O75469)
T5 sequence (O75469 whole entry): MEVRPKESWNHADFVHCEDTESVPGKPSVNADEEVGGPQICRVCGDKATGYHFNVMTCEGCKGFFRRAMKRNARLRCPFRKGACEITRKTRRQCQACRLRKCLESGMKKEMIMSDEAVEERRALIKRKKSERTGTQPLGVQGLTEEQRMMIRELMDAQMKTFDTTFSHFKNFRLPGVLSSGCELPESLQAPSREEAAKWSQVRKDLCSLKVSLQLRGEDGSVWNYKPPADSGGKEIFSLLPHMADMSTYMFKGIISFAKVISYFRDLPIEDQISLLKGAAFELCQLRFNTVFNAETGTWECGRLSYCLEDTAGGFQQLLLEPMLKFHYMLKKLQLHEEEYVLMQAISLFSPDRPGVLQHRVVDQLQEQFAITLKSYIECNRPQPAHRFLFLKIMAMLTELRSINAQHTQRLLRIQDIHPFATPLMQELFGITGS

## CCCc1c(OCCCn2ncc3cc(CC(=O)O)ccc32)ccc2c(C(F)(F)F)noc12
[1]
  EC50: 480 nM
[2]
  EC50: 580 nM
[3]
  IC50: 780 nM
[4]
  IC50: 73 nM
[5]
  IC50: 87 nM

## CCCc1c(OCCCN(C)c2ccc(CC(=O)O)cc2C)ccc2c(C(F)(F)F)noc12
[3]
  IC50: 600 nM
[4]
  IC50: 580 nM
[5]
  IC50: 320 nM

## CCCc1c(OCCCn2ccc3cc(C(=O)O)ccc32)ccc2c(C(F)(F)F)noc12
[1]
  EC50: 1900 nM
[2]
  EC50: 2800 nM
[3]
  IC50: 8300 nM
[4]
  IC50: 72 nM
[5]
  IC50: 199 nM

## CCCc1c(OCCCN(C)c2cnc(CC(=O)O)cn2)ccc2c(C(F)(F)F)noc12
[1]
  EC50: 540 nM
[2]
  EC50: 150 nM
[4]
  IC50: 90 nM
[5]
  IC50: 40 nM
Mus musculus
  AUC: 7.5 µM·kg·h/mg
In vivo [6]
  clearance: 17 mL/min/kg
In vivo [7]
  Vd: 2.8 L/kg
In vivo [8]
  half-life: 2.1 h

## CCCc1c(OCCCN(C)c2ncc(CC(=O)O)s2)ccc2c(C(F)(F)F)noc12
[1]
  EC50: 1100 nM
[2]
  EC50: 650 nM
[4]
  IC50: 67 nM
[5]
  IC50: 100 nM
Mus musculus
  AUC: 3.1 µM·kg·h/mg
In vivo [6]
  clearance: 13 mL/min/kg
In vivo [7]
  Vd: 1.2 L/kg
In vivo [8]
  half-life: 1.2 h

## CCCc1c(OCCCN(C)c2ccc(CC(=O)O)c(C(F)(F)F)c2)ccc2c(C(F)(F)F)noc12
[1]
  EC50: 3600 nM
[2]
  EC50: 1300 nM
[3]
  IC50: 140 nM
[9]
  IC50: 540 nM
[4]
  IC50: 60 nM
[5]
  IC50: 18 nM

## CCCc1c(OCCCN(CC)c2ccc(CC(=O)O)cc2)ccc2c(C(F)(F)F)noc12
[3]
  IC50: 2600 nM
[9]
  IC50: 8600 nM
[4]
  IC50: 110 nM
[5]
  IC50: 140 nM

## O=C(O)Cc1cccc(OCCCN(Cc2cccc(C(F)(F)F)c2Cl)CC(c2ccccc2)c2ccccc2)c1
Mus musculus
  AUC: 2 µM·kg·h/mg
In vivo [6]
  clearance: 8 mL/min/kg
In vivo [7]
  Vd: 1.2 L/kg
In vivo [8]
  half-life: 3.4 h

## CCCc1c(OCCCN(C)c2cccc(CC(=O)O)c2)ccc2c(C(F)(F)F)noc12
[1]
  EC50: 2600 nM
[2]
  EC50: 3500 nM
[3]
  IC50: 1500 nM
[9]
  IC50: 93 nM
[4]
  IC50: 102 nM
[5]
  IC50: 98 nM

## CCCc1c(OCCCN(C)c2ccc(CC(=O)O)cc2Cl)ccc2c(C(F)(F)F)noc12
[9]
  IC50: 49 nM
[4]
  IC50: 630 nM
[5]
  IC50: 170 nM

## CCCc1c(OCCCNc2ccc(CC(=O)O)cc2)ccc2c(C(F)(F)F)noc12
[1]
  EC50: 8000 nM
[2]
  EC50: 7700 nM
[3]
  IC50: 16 nM
[9]
  IC50: 88 nM
[4]
  IC50: 68 nM
[5]
  IC50: 89 nM

## CCCc1c(OCCCN(C(C)=O)c2ccc(CC(=O)O)cc2)ccc2c(C(F)(F)F)noc12
[4]
  IC50: 6400 nM

## CCCc1c(OCCCN(C)c2ccc(CC(=O)O)c(C)c2)ccc2c(C(F)(F)F)noc12
[1]
  EC50: 1300 nM
[2]
  EC50: 303 nM
[3]
  IC50: 870 nM
[9]
  IC50: 150 nM
[4]
  IC50: 117 nM
[5]
  IC50: 26 nM

## CCCc1c(OCCCSc2ccc(CC(=O)O)cc2Cl)ccc2c(C(F)(F)F)noc12
[1]
  EC50: 5900 nM
[3]
  IC50: 280 nM
[9]
  IC50: 4 nM
[4]
  IC50: 32 nM

## CCCc1c(OCCCN(C)c2ccc(CC(=O)O)c(Cl)c2)ccc2c(C(F)(F)F)noc12
[1]
  EC50: 170 nM
[2]
  EC50: 124 nM
[9]
  IC50: 1400 nM
[4]
  IC50: 12 nM
[5]
  IC50: 10 nM

## CCCc1c(OCCCCc2ccc(CC(=O)O)cc2)ccc2c(C(F)(F)F)noc12
[4]
  IC50: 530 nM
[5]
  IC50: 970 nM

## CCCc1c(OCCCn2ccc3cc(CC(=O)O)ccc32)ccc2c(C(F)(F)F)noc12
[1]
  EC50: 590 nM
[2]
  EC50: 450 nM
[3]
  IC50: 400 nM
[4]
  IC50: 16 nM
[5]
  IC50: 16 nM
Mus musculus
  AUC: 2.7 µM·kg·h/mg
In vivo [6]
  clearance: 18 mL/min/kg
In vivo [7]
  Vd: 2.7 L/kg
In vivo [8]
  half-life: 3.9 h

## CCCc1c(OCCCN(C)c2ccc(CC(=O)O)cc2)ccc2c(C(F)(F)F)noc12
[1]
  EC50: 450 nM
[2]
  EC50: 360 nM
[3]
  IC50: 310 nM
[9]
  IC50: 310 nM
[4]
  IC50: 18 nM
[5]
  IC50: 25 nM

## CCCc1c(OCCCN(C)c2ccc(CC(=O)O)cn2)ccc2c(C(F)(F)F)noc12
[1]
  EC50: 5000 nM
[4]
  IC50: 105 nM
[5]
  IC50: 630 nM

## CCCc1c(OCCCn2cnc3cc(CC(=O)O)ccc32)ccc2c(C(F)(F)F)noc12
[2]
  EC50: 8600 nM
[9]
  IC50: 1800 nM
[4]
  IC50: 180 nM
[5]
  IC50: 410 nM

## CCCc1c(OCCCN2C(=O)Cc3cc(CC(=O)O)ccc32)ccc2c(C(F)(F)F)noc12
[1]
  EC50: 180 nM
[2]
  EC50: 140 nM
[4]
  IC50: 19 nM
[5]
  IC50: 13 nM
[10]
  IC50: > 10000 nM
Mus musculus
  AUC: 1 µM·kg·h/mg
In vivo [6]
  clearance: 46 mL/min/kg
In vivo [7]
  Vd: 2.9 L/kg
In vivo [8]
  half-life: 1 h

## CCCc1c(OCCCn2ccc3cc(CCC(=O)O)ccc32)ccc2c(C(F)(F)F)noc12
[1]
  EC50: 820 nM
[2]
  EC50: 700 nM
[3]
  IC50: 450 nM
[9]
  IC50: 70 nM
[4]
  IC50: 18 nM
[5]
  IC50: 6 nM

## CCCc1c(OCCCOc2ccc(CC(=O)O)cc2Cl)ccc2c(C(F)(F)F)noc12
[2]
  EC50: 9700 nM
[3]
  IC50: 230 nM
[4]
  IC50: 39 nM
[5]
  IC50: 65 nM

## CCCc1c(OCCCN(C)c2ccc(C(=O)O)cc2)ccc2c(C(F)(F)F)noc12
[1]
  EC50: 6000 nM
[2]
  EC50: 5100 nM
[4]
  IC50: 79 nM
[5]
  IC50: 190 nM

## CCCc1c(OCCCN(C)c2ncc(CC(=O)O)cn2)ccc2c(C(F)(F)F)noc12
[1]
  EC50: 620 nM
[2]
  EC50: 470 nM
[4]
  IC50: 26 nM
[5]
  IC50: 55 nM

## CCCc1c(OCCCN(C)c2ccccc2)ccc2c(C(F)(F)F)noc12
[4]
  IC50: 372 nM
[5]
  IC50: 428 nM

## CCCc1c(OCCCN(C=O)c2ccc(CC(=O)O)cc2)ccc2c(C(F)(F)F)noc12
[4]
  IC50: 6400 nM

## CCCc1c(OCCCn2nnc3cc(CC(=O)O)ccc32)ccc2c(C(F)(F)F)noc12
[1]
  EC50: 2300 nM
[2]
  EC50: 1700 nM
[3]
  IC50: 4400 nM
[4]
  IC50: 410 nM
[5]
  IC50: 350 nM

## CCCc1c(OCCCOc2ccc(CC(=O)O)cc2)ccc2c(C(F)(F)F)noc12
[3]
  IC50: 19 nM
[9]
  IC50: 8 nM
[4]
  IC50: 730 nM
[5]
  IC50: 100 nM

## CCCc1c(OCCCN2C(=O)Cc3cc(C(=O)O)ccc32)ccc2c(C(F)(F)F)noc12
[1]
  EC50: 3000 nM
[2]
  EC50: 4400 nM
[4]
  IC50: 97 nM
[5]
  IC50: 700 nM
